Results on 35 molecules are retold here after patent US20250092056A1, “URACIL DERIVATIVES HAVING VIRUS REPLICATION INHIBITORY ACTIVITY AND PHARMACEUTICAL COMPOSITION COMPRISING THE SAME” (Shionogi & Co., Ltd., priority 2022, published 2025).

pEC50, pIC50: −log10 of the molar value. Where “and” joins values, the source holds several entries; their conditions need not be identical. Equal values may be shown once. Read-outs that look alike come from different tables or passages of the source.

Test [1] deals with SARS-CoV-2. Put plainly: Cytopathic effect (CPE) suppression effect confirmation test using HEK293T/ACE2-TMPRSS2 cells. The class given is cell-based. The following applies: Severe acute respiratory syndrome coronavirus 2, HEK-293T.
In test [2] the target is Recombinant SARS-CoV-2 3CL Protease (Severe acute respiratory syndrome coronavirus 2 (2019-nCoV) (SARS-CoV-2), UniProt P0DTD1). Put plainly: biochemical. The class given is biochemical. The following applies: 50% SARS-CoV-2 3CL protease inhibitory concentration; read-out: IC50.
Where [3] appears, read: 72 h, read-out: EC50 (50% SARS-CoV-2 infected cell death inhibitory concentration), class, HEK293T/ACE2-TMPRSS2 cells, CPE suppression, CellTiter-Glo 2.0 after 3 days culture.
Setting [4] is: 72 h, read-out: EC50 (50% SARS-CoV-2 infected cell death inhibitory concentration), HEK293T/ACE2-TMPRSS2 cells, CPE suppression, CellTiter-Glo 2.0 after 3 days culture.
[5] abbreviates: 72 h, HEK293T/ACE2-TMPRSS2 cells, CPE suppression, CellTiter-Glo 2.0 after 3 days culture, read-out: EC50 (50% SARS-CoV-2 infected cell death inhibitory concentration), class.
The mark [6] stands for this setting: 50% SARS-CoV-2 infected cell death inhibitory concentration, HEK293T/ACE2-TMPRSS2 cells, read-out: EC50.

On to `Cc1cc(-n2c(=O)c(-c3ccc(F)c(Cl)c3)c(-c3ccc(C4CC4)cc3)n(CC#N)c2=O)cc(=O)[nH]1` [Compound I-183], for which the pEC50 in test [1] (setting [3]) is greater than 7.00. The pIC50 in test [2] is 7.00 to 8.00 and > 8.00.
As for `Cc1cc(-n2c(=O)c(-c3ccc(F)c(Cl)c3)c(C#CC3CC3)n(CC#N)c2=O)cc(=O)[nH]1` [Compound I-184], the pEC50 in test [1] (setting [3]) was 6.00 to 7.00. Also, the pIC50 in test [2] was less than 7.00.
As for `N#CCc1c(N2Cc3ccccc3C2)n(Cc2cc(F)c(F)c(F)c2)c(=O)n(-c2cncc(Cl)c2)c1=O` [Compound I-185], in test [1] (setting [4]), the pEC50 is 7.39. Moreover, in test [2], the pIC50 is 7.57.
On to `Cc1cc(-n2c(=O)c(-c3ccc(F)c(Cl)c3)c(N3CC4(CCOC4)C3)n(CC#N)c2=O)cnn1` [Compound I-188], for which the pEC50 in test [1] (setting [5]) was 6.00 to 7.00. Further, the pIC50 in test [2] was 7.00 to 8.00.
Turning to `Cc1cc(-n2c(=O)c(-c3ccc(F)c(Cl)c3)c(-c3nc4ccccc4s3)n(CC#N)c2=O)cc(=O)[nH]1` [Compound I-189], the pEC50 in test [1] (setting [3]) was greater than 7.00. Besides, the pIC50 in test [2] is greater than 8.00.
As to `N#CCn1c(N2CC3(CCOC3)C2)c(-c2ccc(F)c(Cl)c2)c(=O)n(-c2cncc(C(F)(F)F)n2)c1=O` [Compound I-190], the pEC50 in test [1] (setting [3]) was greater than 7.00. The pIC50 in test [2] was greater than 8.00.
Taken in the same sequence, the figures for `N#CCn1c(N2CC3(CCOC3)C2)c(-c2ccc(F)c(Cl)c2)c(=O)n(-c2cncc(Cl)n2)c1=O` [Compound I-191] were greater than 7.00 and greater than 8.00.
Taken in the same sequence, the figures for `Cc1cncc(-n2c(=O)c(-c3ccc(F)c(Cl)c3)c(N3CC4(CCOC4)C3)n(CC#N)c2=O)n1` [Compound I-192] were greater than 7.00 and greater than 8.00.
With `Cc1cncc(-n2c(=O)c(-c3ccc(F)c(Cl)c3)c(N3CC4(CCCO4)C3)n(CC#N)c2=O)n1` [Compound I-195], in test [1] (setting [3]), the pEC50 was greater than 7.00. Moreover, the pIC50 in test [2] is greater than 8.00.
For `Cc1cncc(-n2c(=O)c(-c3ccc(F)c(Cl)c3)c(N3CC(C)(C)C3)n(CC#N)c2=O)n1` [Compound I-196], the pEC50 in test [1] (setting [3]) was greater than 7.00. For the same molecule, in test [2], the pIC50 was greater than 8.00.
As to `Cc1cncc(-n2c(=O)c(-c3ccc(F)c(Cl)c3)c(N3CCC(F)(F)CC3)n(CC#N)c2=O)n1` [Compound I-197], the pEC50 in test [1] (setting [3]) is greater than 7.00. Further, the pIC50 in test [2] was greater than 8.00.
On the same counts, the results for `Cc1cncc(-n2c(=O)c(-c3ccc(F)c(Cl)c3)c(N3CC4(C3)CC(F)(F)C4)n(CC#N)c2=O)n1` [Compound I-198] are greater than 7.00 and greater than 8.00.
Taken in the same sequence, the figures for `Cc1cncc(-n2c(=O)c(-c3ccc(F)c(Cl)c3)c(N3CCC(C(F)(F)F)CC3)n(CC#N)c2=O)n1` [Compound I-199] were greater than 7.00 and greater than 8.00.
Regarding `Cc1cc(-n2c(=O)c(-c3cc(Cl)cc(C(F)(F)F)c3)c(N3CCC(C(F)(F)F)CC3)n(CC#N)c2=O)cc(=O)[nH]1` [Compound I-200], the pEC50 in test [1] (setting [5]) was greater than 7.00. Moreover, the pIC50 in test [2] was 7.00 to 8.00.
With `Cc1cc(-n2c(=O)c(-c3cc(Cl)cc(C(F)(F)F)c3)c(N3CC4(C3)CC(F)(F)C4)n(CC#N)c2=O)cc(=O)[nH]1` [Compound I-201], the pEC50 in test [1] (setting [3]) was 6.00 to 7.00. The pIC50 in test [2] is greater than 8.00.
`COc1ccc(Oc2c(Cc3cc(F)c(F)c(F)c3)c(=O)n(-c3cncc(C)c3)c(=O)n2CC#N)cc1` [Compound I-202]: the pEC50 in test [1] (setting [4]) was 6.21. Further, the pIC50 in test [2] was 7.43.
`Cc1cncc(-n2c(=O)c(Cc3cc(F)c(F)c(F)c3)c(N3CCCC3)n(CC#N)c2=O)c1` [Compound I-203]: in test [1] (setting [5]), the pEC50 is greater than 7.00. The pIC50 in test [2] was 7.00 to 8.00.
As for `Cc1cncc(-n2c(=O)c(Cc3cc(F)c(F)c(F)c3)c(N3Cc4cn[nH]c4C3)n(CC#N)c2=O)c1` [Compound I-204], the pEC50 in test [1] (setting [3]) is greater than 7.00. The pIC50 in test [2] was greater than 8.00.
On to `Cc1cncc(-n2c(=O)c(Cc3cc(F)c(F)c(F)c3)c(N3Cc4ccccc4C3)n(CC#N)c2=O)c1` [Compound I-205], for which, in test [1] (setting [4]), the pEC50 was 8.30. The pIC50 in test [2] was 9.12.
As to `N#CCn1c(N2CC3(C2)CC(F)(F)C3)c(-c2ccc(F)c(Cl)c2)c(=O)n(-c2cncc(C#N)n2)c1=O` [Compound I-206], the pEC50 in test [1] (setting [6]) was greater than 7.00. In addition, the pIC50 in test [2] was greater than 8.00.
On the same counts, the results for `N#CCn1c(N2CC3(C2)CC(F)(F)C3)c(-c2ccc(F)c(Cl)c2)c(=O)n(-c2cncc(C(F)(F)F)n2)c1=O` [Compound I-207] are greater than 7.00 and greater than 8.00.
Take `N#CCn1c(N2CC3(C2)CC(F)(F)C3)c(-c2ccc(F)c(Cl)c2)c(=O)n(-c2cncc(C(F)F)n2)c1=O` [Compound I-208]: in test [1] (setting [4]), the pEC50 was 8.15. Further, the pIC50 in test [2] is 8.74.
With `N#CCc1cncc(-n2c(=O)c(-c3ccc(F)c(Cl)c3)c(N3CC4(C3)CC(F)(F)C4)n(CC#N)c2=O)n1` [Compound I-209], the pEC50 in test [1] (setting [6]) was greater than 7.00. Moreover, in test [2], the pIC50 is greater than 8.00.
With `N#CCn1c(N2CC3(C2)CC(F)(F)C3)c(-c2ccc(F)c(Cl)c2)c(=O)n(CC#N)c1=O` [Compound I-210], the pEC50 in test [1] (setting [6]) was 6.00 to 7.00. The negative-log IC50 (pIC50) in test [2] is less than 7.00.
On the same counts, the results for `Cc1cncc(-n2c(=O)c(-c3ccc(F)c(Cl)c3)c(C3=CCOCC3)n(CC#N)c2=O)c1` [Compound I-211] are greater than 7.00 and greater than 8.00.
Taken in the same sequence, the figures for `Cc1cncc(-n2c(=O)c(-c3ccc(F)c(Cl)c3)c(/C=C/c3ccc(C(F)(F)F)cc3)n(CC#N)c2=O)c1` [Compound I-212] were 6.00 to 7.00 and 7.00 to 8.00.
Taken in the same sequence, the figures for `Cc1cncc(-n2c(=O)c(-c3cc(F)c(F)c(F)c3)c(CCC(C)(C)O)n(CC#N)c2=O)c1` [Compound I-213] were greater than 7.00 and greater than 8.00.
As to `N#CCn1c(N2CC3(C2)CC(F)(F)C3)c(-c2ccc(F)c(Cl)c2)c(=O)n(-c2cc(Cl)cnn2)c1=O` [Compound I-214], the pEC50 in test [1] (setting [6]) is greater than 7.00. Besides, the pIC50 in test [2] was greater than 8.00.
On the same counts, the results for `COc1cnnc(-n2c(=O)c(-c3ccc(F)c(Cl)c3)c(N3CC4(C3)CC(F)(F)C4)n(CC#N)c2=O)c1` [Compound I-215] are greater than 7.00 and greater than 8.00.
On the same counts, the results for `N#CCn1c(N2CC3(C2)CC(F)(F)C3)c(-c2ccc(F)c(Cl)c2)c(=O)n(-c2cc(C#N)cnn2)c1=O` [Compound I-216] are greater than 7.00 and greater than 8.00.
Taken in the same sequence, the figures for `N#CCn1c(N2CC3(C2)CC(F)(F)C3)c(-c2ccc(F)c(Cl)c2)c(=O)n(-c2cc(OCC(F)F)cnn2)c1=O` [Compound I-217] were greater than 7.00 and greater than 8.00.
With `CNc1cnnc(-n2c(=O)c(-c3ccc(F)c(Cl)c3)c(N3CC4(C3)CC(F)(F)C4)n(CC#N)c2=O)c1` [Compound I-218], the pEC50 in test [1] (setting [6]) is 5.30 to 6.00. The pIC50 in test [2] was greater than 8.00.
Taken in the same sequence, the figures for `CN(C)c1cnnc(-n2c(=O)c(-c3ccc(F)c(Cl)c3)c(N3CC4(C3)CC(F)(F)C4)n(CC#N)c2=O)c1` [Compound I-219] were 6.00 to 7.00 and 7.00 to 8.00.
Taken in the same sequence, the figures for `Cc1cc(-n2c(=O)c(-c3ccc(F)c(Cl)c3)c(-c3ccc(C(F)F)cc3)n(CC#N)c2=O)cc(=O)[nH]1` [Compound I-220] were 6.00 to 7.00 and greater than 8.00.
On the same counts, the results for `Cc1cc(-n2c(=O)c(-c3ccc(F)c(Cl)c3)c(N3CC4(C3)CC(F)(F)C4)n(CC#N)c2=O)[nH]c(=O)c1` [Compound I-221] are 5.30 to 6.00 and less than 7.00.
